The values that follow come from ChEMBL document CHEMBL2016572, “Second-generation histone deacetylase 6 inhibitors enhance the immunosuppressive effects of Foxp3+ T-regulatory cells” (J Med Chem, 2012).

Each structure is given as a SMILES string. pIC50: −log10 of the molar value. Calls of active or inactive are those of the source. The calls are words filed in the database; no cut-off is given here.

In test [1] the test system is T-cell. Put plainly: Immunosuppressive activity against C57BL/6 mouse CFSE-labelled effector T cells assessed as inhibition of T regulatory cells-mediated proliferation at 0.25 uM after 3 to 4 days by flow cytometry relative to control. Type of test: functional, cell-based. (In general: Flow cytometry measures light scatter and fluorescence of single cells or particles in a stream.)

The species entered for test [2] is Homo sapiens. Put plainly: Selectivity ratio of IC50 for human recombinant HDAC1 to IC50 for human recombinant HDAC6.
Test [3] concerns the target Histone deacetylase 1 (Homo sapiens, UniProt Q13547). Put plainly: Inhibition of human recombinant HDAC1 using RHKKAc peptide as substrate incubated for 5 to mins prior to substrate addition measured after 2 hrs.
A short description of test [4]: Immunosuppressive activity against C57BL/6 mouse CFSE-labelled effector T cells assessed as Treg suppression of Teffector proliferation AUC at 0.25 uM after 3 to 4 days by flow cytometry relative to control. Type of test: functional, T-cell.
For test [5], the system named is Mus musculus. Put plainly: Immunosuppressive activity against HDAC6 deficient CD4+CD25- CFSE-labelled effector T cells xenografted in RAG-/- mouse assessed as inhibition of FoxP3+,CD4+CD25+ T regulatory cells-mediated proliferation at 1 mg/kg, ip administered qd for 7 days measured on day 8 by flow cytometry. The class given is functional, organism-based. On the set-up: dose 1 mg/kg. As to conditions: T-cell.

Test [6] deals with T1, Protein deacetylase HDAC6 (Homo sapiens, UniProt Q9UBN7).
T1 sequence (Q9UBN7 whole entry): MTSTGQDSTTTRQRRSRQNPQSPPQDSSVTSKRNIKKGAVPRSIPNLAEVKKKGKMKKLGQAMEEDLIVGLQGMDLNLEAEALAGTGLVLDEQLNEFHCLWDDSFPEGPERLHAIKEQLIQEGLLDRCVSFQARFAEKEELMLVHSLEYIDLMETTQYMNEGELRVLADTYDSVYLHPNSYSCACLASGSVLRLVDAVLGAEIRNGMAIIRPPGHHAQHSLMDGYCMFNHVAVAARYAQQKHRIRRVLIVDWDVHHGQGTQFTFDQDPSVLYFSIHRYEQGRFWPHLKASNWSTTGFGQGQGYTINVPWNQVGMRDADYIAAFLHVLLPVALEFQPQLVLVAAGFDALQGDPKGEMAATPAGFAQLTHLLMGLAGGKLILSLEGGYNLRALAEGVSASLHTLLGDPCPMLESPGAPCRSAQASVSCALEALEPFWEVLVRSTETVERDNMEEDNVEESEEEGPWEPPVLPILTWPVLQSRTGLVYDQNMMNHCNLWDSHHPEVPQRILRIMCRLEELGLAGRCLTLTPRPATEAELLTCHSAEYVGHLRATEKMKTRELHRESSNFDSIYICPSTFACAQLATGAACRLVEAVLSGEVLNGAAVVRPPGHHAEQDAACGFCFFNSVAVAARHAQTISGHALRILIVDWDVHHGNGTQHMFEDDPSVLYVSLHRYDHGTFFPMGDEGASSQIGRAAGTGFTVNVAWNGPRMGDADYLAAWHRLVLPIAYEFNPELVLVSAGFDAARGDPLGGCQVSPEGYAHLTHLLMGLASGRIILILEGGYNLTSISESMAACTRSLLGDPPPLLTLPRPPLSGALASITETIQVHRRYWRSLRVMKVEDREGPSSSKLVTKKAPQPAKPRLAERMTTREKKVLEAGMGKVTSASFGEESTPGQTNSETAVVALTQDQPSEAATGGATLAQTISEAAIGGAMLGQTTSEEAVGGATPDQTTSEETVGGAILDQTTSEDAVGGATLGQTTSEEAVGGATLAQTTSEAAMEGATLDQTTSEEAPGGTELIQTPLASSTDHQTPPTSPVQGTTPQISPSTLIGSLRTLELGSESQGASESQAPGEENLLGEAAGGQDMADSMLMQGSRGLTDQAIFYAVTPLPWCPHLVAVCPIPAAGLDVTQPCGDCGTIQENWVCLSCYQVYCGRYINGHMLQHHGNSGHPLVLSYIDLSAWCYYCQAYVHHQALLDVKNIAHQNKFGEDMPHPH
The test can be described thus: Inhibition of human recombinant HDAC6 using RHKKAc peptide as substrate incubated for 5 to mins prior to substrate addition measured after 2 hrs.

The nature of test [7]: Immunosuppressive activity against C57BL/6 mouse CFSE-labelled effector T cells assessed as inhibition of T regulatory cell-mediated proliferation at Treg:Teff ratio of 1:4 at 1 uM after 3 to 4 days by flow cytometry (reference value: 74.2%). The class given is functional. The following applies: C57BL/6, T-cell.
A short description of test [8]: Immunosuppressive activity against C57BL/6 mouse CFSE-labelled effector T cells assessed as inhibition of T regulatory cells-mediated proliferation at Treg:Teff ratio of 1:1 at 1 uM after 3 to 4 days by flow cytometry (reference value: 42.2%). The class given is functional. As to conditions: C57BL/6, T-cell.
Test [9] can be described thus: Immunosuppressive activity against C57BL/6 mouse CFSE-labelled effector T cells assessed as inhibition of T regulatory cells-mediated proliferation at Treg:Teff ratio of 1:2 at 1 uM after 3 to 4 days by flow cytometry (reference value: 64.8%). Type of test: functional. As to conditions: C57BL/6, T-cell.
The nature of test [10]: Immunosuppressive activity against C57BL/6 mouse CFSE-labelled effector T cells assessed as inhibition of T regulatory cells-mediated proliferation at Treg:Teff ratio of 1:16 at 1 uM after 3 to 4 days by flow cytometry (reference value: 86.9%). The following applies: C57BL/6, T-cell. Type of test: functional.
Test [11] is described as follows: Immunosuppressive activity against C57BL/6 mouse CFSE-labelled effector T cells assessed as inhibition of T regulatory cell-mediated proliferation at Treg:Teff ratio of 1:4 at 0.5 uM after 3 to 4 days by flow cytometry (reference value: 74.2%). As to conditions: C57BL/6, T-cell. The class given is functional.
Test [12] is described as follows: Immunosuppressive activity against C57BL/6 mouse CFSE-labelled effector T cells assessed as inhibition of T regulatory cell-mediated proliferation at Treg:Teff ratio of 1:8 at 0.5 uM after 3 to 4 days by flow cytometry (reference value: […]). The class given is functional. As to conditions: C57BL/6, T-cell.
In test [13] the test system is T-cell. The test can be described thus: Immunosuppressive activity against C57BL/6 mouse CFSE-labelled effector T cells assessed as inhibition of T regulatory cell-mediated cell division at Treg:Teff ratio of 1:2 at 0.5 uM after 3 to 4 days by flow cytometry (reference value: 64.8%). The class given is functional. The following applies: C57BL/6, T-cell.
Test [14] can be described thus: Immunosuppressive activity against C57BL/6 mouse CFSE-labelled effector T cells assessed as Treg suppression of Teffector proliferation AUC at 0.5 uM after 3 to 4 days by flow cytometry relative to control. Type of test: functional, T-cell.
The subject of test [15] is T-cell. The test can be described thus: Immunosuppressive activity against C57BL/6 mouse CFSE-labelled effector T cells assessed as inhibition of T regulatory cell-mediated cell division at Treg:Teff ratio of 1:1 at 0.5 uM after 3 to 4 days by flow cytometry (reference value: 42.2%). The class given is functional. As to conditions: C57BL/6, T-cell.
The nature of test [16]: Immunosuppressive activity against C57BL/6 mouse CFSE-labelled effector T cells assessed as inhibition of T regulatory cell-mediated proliferation at Treg:Teff ratio of 1:16 at 0.5 uM after 3 to 4 days by flow cytometry (reference value: 86.9%). The class given is functional. The following applies: C57BL/6, T-cell.
A short description of test [17]: Immunosuppressive activity against C57BL/6 mouse CFSE-labelled effector T cells assessed as Treg suppression of Teffector proliferation AUC at […] after 3 to 4 days by flow cytometry relative to control. Type of test: functional, T-cell.
Test [18] can be described thus: Immunosuppressive activity against C57BL/6 mouse CFSE-labelled effector T cells assessed as Treg suppression of Teffector proliferation AUC at 1 uM after 3 to 4 days by flow cytometry relative to control. The class given is functional, T-cell.
Test [19] has as its system T-cell. The test can be described thus: Immunosuppressive activity against C57BL/6 mouse CFSE-labelled effector T cells assessed as inhibition of T regulatory cells-mediated proliferation at 1 uM after 3 to 4 days by flow cytometry relative to control. The class given is functional, cell-based.

Chain of Histone deacetylase 1 (Q13547 whole entry): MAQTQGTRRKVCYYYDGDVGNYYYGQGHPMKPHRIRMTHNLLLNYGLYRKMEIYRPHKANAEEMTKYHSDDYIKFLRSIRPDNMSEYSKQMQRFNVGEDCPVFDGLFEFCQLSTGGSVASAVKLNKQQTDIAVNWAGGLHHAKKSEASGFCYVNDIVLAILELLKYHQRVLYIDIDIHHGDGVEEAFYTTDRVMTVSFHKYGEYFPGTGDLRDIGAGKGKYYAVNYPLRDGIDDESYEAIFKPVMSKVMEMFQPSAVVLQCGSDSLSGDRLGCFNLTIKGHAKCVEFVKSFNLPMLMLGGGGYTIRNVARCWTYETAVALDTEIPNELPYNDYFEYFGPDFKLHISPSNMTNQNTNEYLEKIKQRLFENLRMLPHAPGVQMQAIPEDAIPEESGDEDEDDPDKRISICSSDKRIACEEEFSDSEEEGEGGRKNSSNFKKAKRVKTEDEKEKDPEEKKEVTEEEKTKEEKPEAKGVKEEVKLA

Regarding `CN1CCc2c(c3cc(Br)ccc3n2Cc2ccc(C(=O)NO)cc2)C1`, the inhibition entry in test [1] and in [5] was “Active” in each case. In [2], the Ratio IC50 was determined as 606. The pIC50 in [3] was 6.37; in [6] it was 9.15. For the same compound, the Ratio in test [4] is on record as 1.87.
With `CCN1CCc2c(c3ccccc3n2Cc2ccc(C(=O)NO)cc2)C1`, the Ratio IC50 in [2] was 3410. Also, the values for the pIC50 in test [3] and in [6] were 4.99 and 8.52, respectively.
The like results for `NC(=O)CCCN1CCc2c(c3ccccc3n2Cc2ccc(C(=O)NO)cc2)C1` were, in that order, 1830, 5.13 and 8.39.
As for `CN1CCc2c(c3ccccc3n2Cc2ccc(C(=O)NO)cc2)C1` [TUBASTATIN A], the inhibition at 1 µM is 58.7% in [7], 37.8% in [8], 44.4% in [9] and 75.4% in test [10].
Take `O=C(NO)c1ccc(Cn2c3c(c4ccccc42)CN(Cc2ccncc2)CC3)cc1`: the inhibition at 0.5 µM in [11] turned out to be 62.3%; in [12], 69.7%; in test [13], 51.6%; in [15], 37.8%; in test [16], 72.8%. Also, the Ratio IC50 in [2] was determined as 4710. In addition, the figures for the pIC50 in test [3] and in test [6] were 5.56 and 9.24, respectively. The Ratio in test [14] came to 2.13. For the same compound, in test [5], the inhibition entry was “Active”.
Consider `O=C(NO)c1ccc(Cn2c3c(c4ccccc42)CCN(Cc2ccccc2)C3)cc1`, for which the Ratio IC50 in [2] turned out to be 4950. The pIC50 in test [3] is 5.36; in test [6], 9.06.
As for `NC(=O)CN1CCc2c(c3ccccc3n2Cc2ccc(C(=O)NO)cc2)C1`, in [17], the Ratio amounted to 1.69. The Ratio IC50 in test [2] was found to be 4980. Besides, the pIC50 in test [3] is 5.40; in [6], 9.10.
For the compound `Cc1cc(C)c2c3c(n(Cc4ccc(C(=O)NO)cc4)c2c1)CCN(C)C3`, the Ratio IC50 in [2] turned out to be 268. Moreover, the pIC50 is 4.99 in test [3] and 7.42 in test [6].
The like results for `CN1CCc2c(c3cc(Cl)ccc3n2Cc2ccc(C(=O)NO)cc2)C1` were, in that order, 1000, 5.99 and 8.99.
Taken in the same sequence, the figures for `Cc1cccc2c3c(n(Cc4ccc(C(=O)NO)cc4)c12)CCN(C)C3` were 636, 4.66 and 7.46.
The like results for `NC(=O)CCN1CCc2c(c3ccccc3n2Cc2ccc(C(=O)NO)cc2)C1` were, in that order, 3510, 5.79 and 9.34.
As to `Cc1ccc2c(c1)c1c(n2Cc2ccc(C(=O)NO)cc2)CCN(C)C1`, in test [2], the Ratio IC50 was determined as 422. Moreover, the pIC50 in test [3] was 5.68; in test [6], 8.31.
In the case of `COc1cccc(CN2CCc3c(c4ccccc4n3Cc3ccc(C(=O)NO)cc3)C2)c1`, in [2], the Ratio IC50 was 1750. Moreover, the pIC50 in test [3] is 5.28; in test [6] it was 8.53. Further, the Ratio in test [14] is listed as 1.9.
Regarding `Cc1ccc2c3c(n(Cc4ccc(C(=O)NO)cc4)c2c1)CCN(C)C3`, the Ratio IC50 in test [2] was 352. Moreover, the pIC50 in test [3] is 5.39; in test [6], 7.94.
Taken in the same sequence, the figures for `CN1CCc2c(c3cc(C(C)(C)C)ccc3n2Cc2ccc(C(=O)NO)cc2)C1` were 626, 4.85 and 7.65.
Consider `O=C(NO)c1ccc(Cn2c3c(c4ccccc42)CNCC3)cc1`, for which the Ratio in test [17] came to 1.76. In addition, in test [2], the Ratio IC50 amounted to 2500. The pIC50 in test [3] is 4.79; in test [6], 8.18.
Take `COc1ccc(CN2CCc3c(c4ccccc4n3Cc3ccc(C(=O)NO)cc3)C2)cc1`: the Ratio IC50 in test [2] was found to be 1520. The results for the pIC50 in [3] and in [6] were 5.33 and 8.52, respectively.
The like results for `O=C(NO)c1ccc(Cn2c3c(c4ccccc42)CCNC3)cc1` were, in that order, 3900, 5.01 and 8.60.
Turning to `C=CCN1CCc2c(c3ccccc3n2Cc2ccc(C(=O)NO)cc2)C1`, in test [2], the Ratio IC50 stood at 5990. The pIC50 in [3] was 5.24; in test [6], 9.01. The Ratio in test [14] came to 1.65.
Turning to `CC(C)(C)OC(=O)N1CCc2c(c3ccccc3n2Cc2ccc(C(=O)NO)cc2)C1`, in [2], the Ratio IC50 came to 3830. The figures for the pIC50 in [3] and in [6] were 5.06 and 8.65, respectively.
The like results for `CC(C)N1CCc2c(c3ccccc3n2Cc2ccc(C(=O)NO)cc2)C1` were, in that order, 1750, 4.80 and 8.05.
Taken in the same sequence, the figures for `COc1ccc2c(c1)c1c(n2Cc2ccc(C(=O)NO)cc2)CCN(C)C1` were 614, 5.73 and 8.51.
Turning to `CN1CCc2c(n(Cc3ccc(C(=O)NO)cc3)c3ccccc23)C1`, the Ratio in test [18] came to 1.63. Besides, the Ratio IC50 in test [2] amounted to 3700. In test [19], the inhibition entry was “Active”. Further, the pIC50 in [6] was 8.85.
For `O=C(NO)c1ccc(Cn2c3c(c4ccccc42)CN(Cc2ccccc2)CC3)cc1`, the Ratio IC50 in test [2] amounted to 7150. The pIC50 in [3] was 4.99; in [6], 8.84.

The term inhibition denotes the drop in the measured response relative to a control, in per cent. The pIC50 is −log10 of the IC50, conventionally taken in molar units.
